Measured values from patent US20230227427A1, “IL-17A MODULATORS” (SANOFI, priority 2010, published 2023).

Biological target: T1, human recombinant IL-17A (Homo sapiens, UniProt Q16552)
T1 construct: purchased R&D Systems 7955-IL/CF
T1 sequence (Q16552 24-155): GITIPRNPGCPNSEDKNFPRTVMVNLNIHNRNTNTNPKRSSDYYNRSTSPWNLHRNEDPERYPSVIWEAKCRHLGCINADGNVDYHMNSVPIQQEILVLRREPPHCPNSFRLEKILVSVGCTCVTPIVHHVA
Assay: IL-17A AlphaLISA assay (block binding of IL-17A to its receptor IL-17RA)
Settings: compounds pre-incubated with the IL-17A for 30 min (indicated by * in Table A); read-out: AlphaLISA pIC50 (converted)
Procedure: The ability of the compounds to block binding of IL-17A to its receptor, IL-17RA, was analysed in a competition assay using AlphaLISA technology (Perkin Elmer). The assay is a bead based AlphaLISA where the IL-17RA is captured on the acceptor bead via an Fc tag and IL-17A is captured on the streptavidin donor bead via a biotinylated anti-IL17A antibody.
Assay buffer was prepared by adding 0.05% Tween-20 (v/v) and 0.1% BSA to Phosphate Buffered Saline (PBS). The assay was carried out in 384-well white low volume plates (Corning 4512). 10 µL of a 7.5 nM stock of human recombinant IL-17A (R&D Systems 7955-IL/CF) diluted in assay buffer was dispensed into the assay plate and compounds or DMSO vehicle control were added in a volume of 75 nL using a D300 dispenser (Hewlett Packard). The compounds were pre-incubated with the IL-17A for 24 h at room temperature (or for 30 min, where indicated by * in Table A below) prior to addition of 5 μL of a 5 nM stock of human recombinant IL-17RA/Fc chimera (R&D Systems 177-IR-100) diluted in assay buffer. The IL-17A was incubated with the receptor for a further 90 minutes at room temperature before addition of 5 μL of a mixture of anti-human Fc IgG acceptor beads (75 μg/mL, Perkin Elmer AL103C) and anti-IL-17A biotin conjugated antibody (5 nM, Enzo Life Sciences, ENZ-ABS278-0100) in assay buffer. After a further 30 min incubation at room temperature, 5 μL of streptavidin donor beads ([…], Perkin Elmer 6760002S) were added and the plate was incubated for 3 h in the dark.
The luminescence signal was measured using an Enspire plate reader (Perkin Elmer) with excitation at 680 nm and emission at 615 nm. Data were analysed using GraphPad Prism and fitted to a 4-parameter logistic equation. The IC50 values were calculated using the DMSO vehicle as the negative control and a high concentration (6 μM) of a reference IL-17A inhibitor as the positive control.
Activity of the Example compounds is reported as a PIC50 value in Table A.

| Compound | IC50 [nM] |
| --- | --- |
| Cc1cc(=O)n(C)c(C)c1-c1ccc(NC(=O)[C@@H](NC(=O)c2ccnn2C)C2CCCCCC2)nc1 [Example 214, (S)—N-(1-cycloheptyl-2-oxo-2-((1′,2′,4′-trimethyl-6′-oxo-1′,6′-dihydro-[3,3′-bipyridin]-6-yl)amino)ethyl)-1-methyl-1H-pyrazole-5-carboxamide] | 158 |
| CCn1nccc1C(=O)N[C@H](C(=O)Nc1ccc(-c2c(C)noc2C)cn1)C1CCCCCC1 [Example 122, (S)—N-(1-Cycloheptyl-2-((5-(3,5-dimethylisoxazol-4-yl)pyridin-2-yl)amino)-2-oxoethyl)-1-ethyl-1H-pyrazole-5-carboxamide] | 39.8 |
| Cc1cnn(C)c1-c1ccc(NC(=O)[C@@H](NC(=O)c2ccnn2C)C2CCCCCC2)nc1 [Example 132, (S)—N-(1-Cycloheptyl-2-((5-(1,4-dimethyl-1H-pyrazol-5-yl)pyridin-2-yl)amino)-2-oxoethyl)-1-methyl-1H-pyrazole-5-carboxamide] | 79.4 |
| CCc1nocc1C(=O)NC(C(=O)Nc1ccc(-c2c(C)cnn2C)cn1)[C@H]1CC[C@H](C(F)(F)F)CC1 (stereo partly drawn) [Example 187, N-(2-((5-(1,4-dimethyl-1H-pyrazol-5-yl)pyridin-2-yl)amino)-2-oxo-1-((1r,4r)-4-(trifluoromethyl)cyclohexyl)ethyl)-3-ethylisoxazole-4-carboxamide] | 398 |
| CCc1nocc1C(=O)N[C@H](C(=O)Nc1ccc(-c2c(C)noc2C)cn1)[C@H]1CC[C@H](C)CC1 [Example 111, N—((S)-2-((5-(3,5-dimethylisoxazol-4-yl)pyridin-2-yl)amino)-1-((1r,4S)-4-methylcyclohexyl)-2-oxoethyl)-3-ethylisoxazole-4-carboxamide] | 79.4 |
| CCn1nccc1C(=O)N[C@H](C(=O)Nc1ccc(-c2c(C)nnn2C)cn1)[C@H]1CC[C@H](C)CC1 [Example 159, N—((S)-2-((5-(1,4-dimethyl-1H-1,2,3-triazol-5-yl)pyridin-2-yl)amino)-1-((1r,4S)-4-methylcyclohexyl)-2-oxoethyl)-1-ethyl-1H-pyrazole-5-carboxamide] | 100 |
| Cc1nnn(C)c1-c1ccc(NC(=O)[C@@H](NC(=O)c2ccnn2C)C2CCCCCC2)nc1 [Example 148, (S)—N-(1-cycloheptyl-2-((5-(1,4-dimethyl-1H-1,2,3-triazol-5-yl)pyridin-2-yl)amino)-2-oxoethyl)-1-methyl-1H-pyrazole-5-carboxamide] | 200 |
| CCn1nccc1C(=O)N[C@H](C(=O)Nc1ccc(-c2c(CO)cnn2C)cn1)C1CCCCCC1 [Example 198, (S)—N-(1-cycloheptyl-2-((5-(4-(hydroxymethyl)-1-methyl-1H-pyrazol-5-yl)pyridin-2-yl)amino)-2-oxoethyl)-1-ethyl-1H-pyrazole-5-carboxamide] | 200 |
| CCn1nccc1C(=O)N[C@H](C(=O)Nc1ccc(-c2c(C)noc2C)nc1)C1CCCCCC1 [Example 169, (S)—N-(1-cycloheptyl-2-((6-(3,5-dimethylisoxazol-4-yl)pyridin-3-yl)amino)-2-oxoethyl)-1-ethyl-1H-pyrazole-5-carboxamide] | 100 |
| Cn1nccc1C(=O)N[C@H](C(=O)Nc1ccc(-c2c(C(F)(F)F)cnn2C)cn1)[C@H]1CC[C@H](C)CC1 [Example 219, 1-methyl-N—((S)-2-((5-(1-methyl-4-(trifluoromethyl)-1H-pyrazol-5-yl)pyridin-2-yl)amino)-1-((1r,4S)-4-methylcyclohexyl)-2-oxoethyl)-1H-pyrazole-5-carboxamide] | 126 |
| Cc1cnn(C)c1-c1ccc(NC(=O)[C@@H](NC(=O)c2conc2C)C2CCCCCC2)nc1 [Example 136, (S)—N-(1-Cycloheptyl-2-((5-(1,4-dimethyl-1H-pyrazol-5-yl)pyridin-2-yl)amino)-2-oxoethyl)-3-methylisoxazole-4-carboxamide] | 63.1 |
| Cc1cc(NC(=O)[C@@H](NC(=O)c2ccnn2C)[C@H]2CC[C@H](C)CC2)ncc1-c1ccnn1C [Example 146, 1-methyl-N—((S)-2-((4-methyl-5-(1-methyl-1H-pyrazol-5-yl)pyridin-2-yl)amino)-1-((1r,4S)-4-methylcyclohexyl)-2-oxoethyl)-1H-pyrazole-5-carboxamide] | 501 |
| Cc1noc(C)c1-c1ccc(NC(=O)[C@@H](NC(=O)c2cnnn2C)C2CCCCCC2)nc1 [Example 117, (S)—N-(1-Cycloheptyl-2-((5-(3,5-dimethylisoxazol-4-yl)pyridin-2-yl)amino)-2-oxoethyl)-1-methyl-1H-1,2,3-triazole-5-carboxamide] | 501 |
| Cc1noc(C)c1-c1ccc(NC(=O)[C@@H](NC(=O)c2ccnn2C)[C@H]2CC[C@H](C)CC2)cn1 [Example 138, N—((S)-2-((6-(3,5-dimethylisoxazol-4-yl)pyridin-3-yl)amino)-1-((1r,4S)-4-methylcyclohexyl)-2-oxoethyl)-1-methyl-1H-pyrazole-5-carboxamide] | 251 |
| Cc1noc(C)c1-c1ccc(NC(=O)[C@@H](NC(=O)c2ccnn2C)C2CCCCCC2)cn1 [Example 172, (S)—N-(1-cycloheptyl-2-((6-(3,5-dimethylisoxazol-4-yl)pyridin-3-yl)amino)-2-oxoethyl)-1-methyl-1H-pyrazole-5-carboxamide] | 200 |
| Cn1nccc1C(=O)N[C@H](C(=O)Nc1ccc(-c2c(C3CC3)nnn2C)cn1)C1CCCCCC1 [Example 173, (S)—N-(1-cycloheptyl-2-((5-(4-cyclopropyl-1-methyl-1H-1,2,3-triazol-5-yl)pyridin-2-yl)amino)-2-oxoethyl)-1-methyl-1H-pyrazole-5-carboxamide] | 158 |

Same assay, conditions: compounds pre-incubated with the IL-17A for 24 h at room temperature; read-out: AlphaLISA pIC50 (converted)

| Compound | IC50 [nM] |
| --- | --- |
| CCn1nccc1C(=O)N[C@H](C(=O)Nc1ccc(-c2c(C)noc2C)c(F)c1)C(c1ccccc1)c1ccccc1 [Example 61, (S)—N-(1-((4-(3,5-dimethylisoxazol-4-yl)-3-fluorophenyl)amino)-1-oxo-3,3-diphenylpropan-2-yl)-1-ethyl-1H-pyrazole-5-carboxamide] | 39.8 |
| COc1cnccc1-c1ccc(NC(=O)[C@@H](NC(=O)c2ccnn2C)C(c2ccccc2)c2ccccc2)cc1C [Example 20, (S)—N-(1-((4-(3-methoxypyridin-4-yl)-3-methylphenyl)amino)-1-oxo-3,3-diphenylpropan-2-yl)-1-methyl-1H-pyrazole-5-carboxamide] | 31.6 |
| Cn1nccc1C(=O)N[C@H](C(=O)Nc1ccc(-c2cnc(=O)n(C)c2)c(F)c1)C(c1ccccc1)c1ccccc1 [Example 63, (S)—N-(1-((3-fluoro-4-(1-methyl-2-oxo-1,2-dihydropyrimidin-5-yl)phenyl)amino)-1-oxo-3,3-diphenylpropan-2-yl)-1-methyl-1H-pyrazole-5-carboxamide] | 158 |
| Cc1n[nH]c(C)c1-c1ccc(NC(=O)[C@@H](NC(=O)c2ccnn2C)[C@H]2CC[C@H](C)CC2)cc1 [Example 84, N—((S)-2-((4-(3,5-Dimethyl-1H-pyrazol-4-yl)phenyl)amino)-1-((1r,4S)-4-methylcyclohexyl)-2-oxoethyl)-1-methyl-1H-pyrazole-5-carboxamide] | 31.6 |
| COc1c[n+]([O-])cc(OC)c1-c1ccc(NC(=O)[C@@H](NC(=O)c2ccnn2C)C(c2ccccc2)c2ccccc2)cc1 [Example 27, (S)-3,5-dimethoxy-4-(4-(2-(1-methyl-1H-pyrazole-5-carboxamido)-3,3-diphenylpropanamido)phenyl)pyridine 1-oxide] | 5.01 |
| Cc1c(-c2ccc(NC(=O)[C@@H](NC(=O)c3ccnn3C)C(c3ccccc3)c3ccccc3)cc2C(F)(F)F)ccc(=O)n1C [Example 54, (S)—N-(1-((4-(1,2-dimethyl-6-oxo-1,6-dihydropyridin-3-yl)-3-(trifluoromethyl)phenyl)amino)-1-oxo-3,3-diphenylpropan-2-yl)-1-methyl-1H-pyrazole-5-carboxamide] | 316 |
| Cn1nccc1C(=O)N[C@H](C(=O)Nc1ccc(-c2cc[nH]c(=O)c2)cc1)[C@H]1CC[C@H](C)CC1 [Example 87, 1-Methyl-N—((S)-1-((1r,4S)-4-methylcyclohexyl)-2-oxo-2-((4-(2-oxo-1,2-dihydropyridin-4-yl)phenyl)amino)ethyl)-1H-pyrazole-5-carboxamide] | 501 |
| Cc1c(-c2ccc(NC(=O)[C@@H](NC(=O)c3ccnn3C)C(c3ccccc3)c3ccccc3)cc2)ccc(=O)n1C [Example 13, (S)—N-(1-((4-(1,2-dimethyl-6-oxo-1,6-dihydropyridin-3-yl)phenyl)amino)-1-oxo-3,3-diphenylpropan-2-yl)-1-methyl-1H-pyrazole-5-carboxamide] | 7.94 |
